# According to article PMC10890502, “Prevention of Protease-Induced Degradation of Desmoplakin via Small Molecule Binding” (Journal of Personalized Medicine, 2024):
# Numbering of substitutions follows the chain as printed. Where two headings read alike, the source gives them in different places.
# Experiments:
# Assay in all cases: biochemical
# sDSP (DSP178–627) [1] = target: T1, sDSP (DSP178–627) (Homo sapiens, UniProt P15924, S442F); parameters: FITC-sDSP S442F degradation by trypsin (1:50), fluorescence polarization after 60 min, per cent of protease-only control; conditions: degradation rate of DSP S442F by trypsin; read-out: % of control remaining
# T1 construct: gene DSP; N-terminal spectrin repeat/SH3 fragment, residues 178-627; pGEX-1 GST fusion cut with thrombin, E. coli BL21(DE3); fluorescein-5-maleimide label on exposed cysteines (C405, C524)
# T1 sequence (P15924 178-627 S442F): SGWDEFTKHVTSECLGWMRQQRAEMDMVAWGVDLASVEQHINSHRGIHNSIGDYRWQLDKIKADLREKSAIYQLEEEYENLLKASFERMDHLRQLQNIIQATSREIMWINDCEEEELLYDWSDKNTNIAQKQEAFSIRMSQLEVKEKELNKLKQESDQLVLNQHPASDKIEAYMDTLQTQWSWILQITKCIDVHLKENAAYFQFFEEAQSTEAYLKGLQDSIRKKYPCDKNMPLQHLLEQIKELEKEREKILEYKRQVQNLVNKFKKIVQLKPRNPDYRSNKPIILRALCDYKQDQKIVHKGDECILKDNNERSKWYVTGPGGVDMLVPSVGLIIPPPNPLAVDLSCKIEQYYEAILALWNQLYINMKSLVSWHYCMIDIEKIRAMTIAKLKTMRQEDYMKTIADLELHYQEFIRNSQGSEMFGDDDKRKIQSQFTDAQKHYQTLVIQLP
# Experimental: Fluorescence Polarization (FP) assays were conducted in […] format using a BioTek Synergy H4 plate reader with polarization capacity (Agilent; Savage, MD, USA). All samples were run at 25 °C using PBS pH 7.4, 1 mM DTT, 10 mM CaCl2, 5% DMSO, and […] FITC- DSP178–627, with 500 μM of each drug. Trypsin, chymotrypsin, or calpain at either 1:50, 1:50, or 1:20 concentration was added directly before data collection with an average void time of 2 min. Control experiments in each plate were conducted in triplicate and consisted of DSP178–627 + DMSO + protease as a positive control and DSP178–627 + DMSO + [compound left out] + protease as a negative control. Only plates that had functional positive and negative controls were used in data analysis. Samples were excited at 485 nm, and polarization was monitored at 528 nm. Data were collected at 5 min increments for 1–3 h. A mutation that partially occludes the DSP calpain cleavage site rescues DSP protein levels. We next assessed whether protease-dependent cleavage can also be blocked by small molecules. We screened 2496 FDA-approved drugs for their ability to prevent trypsin-dependent cleavage of sDSP S442F in our FP assay (Figure 3A). […] No change in fluorescence polarization after an hour is indicative of 0% protein degradation rate, as occurs in the [compound left out] positive control. […] (A) sDSP S442F degradation in the presence of trypsin plus 2496 compounds from the Cayman chemical “FDA library”. A degradation rate of 100% indicates the same desmoplakin degradation rate with and without the addition of 500 μM drug while a 0% rate indicates no degradation, as judged by fluorescent polarization values after 1 h. A trypsin-only control and a trypsin + [compound left out] control is indicated. Protection (red lines) was arbitrarily set between 33% and −10%. […] (B) Example of how the data in A was generated.
# sDSP (DSP178–627) [2] = target: T2, sDSP (DSP178–627) (Homo sapiens, UniProt P15924); parameters: FITC-sDSP degradation by calpain (1:20), fluorescence polarization after 60 min, per cent of calpain-only control; conditions: degradation rate of DSP WT by calpain; read-out: % of control remaining
# T2 construct: gene DSP; N-terminal spectrin repeat/SH3 fragment, residues 178-627; pGEX-1 GST fusion cut with thrombin, E. coli BL21(DE3); fluorescein-5-maleimide label on exposed cysteines (C405, C524)
# T2 sequence (P15924 178-627): T1 sequence (P15924 178-627 S442F) with F265S
# Experimental: (§1) Fluorescence Polarization (FP) assays were conducted in […] format using a BioTek Synergy H4 plate reader with polarization capacity (Agilent; Savage, MD, USA). All samples were run at 25 °C using PBS pH 7.4, 1 mM DTT, 10 mM CaCl2, 5% DMSO, and […] FITC- DSP178–627, with 500 μM of each drug. Trypsin, chymotrypsin, or calpain at either 1:50, 1:50, or 1:20 concentration was added directly before data collection with an average void time of 2 min. Control experiments in each plate were conducted in triplicate and consisted of DSP178–627 + DMSO + protease as a positive control and DSP178–627 + DMSO + [compound left out] + protease as a negative control. Only plates that had functional positive and negative controls were used in data analysis. Samples were excited at 485 nm, and polarization was monitored at 528 nm. Data were collected at 5 min increments for 1–3 h. […] Therefore, we next tested whether these 62 compounds also prevent wildtype and variant DSP degradation in the presence of calpain. […] (A) Normalized fluorescent polarization of WT and sDSP variants in the presence of a 1:20 ratio of calpain plus 500 μM drug, as compared to calpain alone (black) (B) Identity and chemical structure of the six best-performing compounds.
# sDSP (DSP178–627) [3] = target: T3, sDSP (DSP178–627) (Homo sapiens, UniProt P15924, R451G); parameters: FITC-sDSP degradation by calpain (1:20), fluorescence polarization after 60 min, per cent of calpain-only control; conditions: degradation rate of DSP R451G by calpain; read-out: % of control remaining
# T3 construct: gene DSP; N-terminal spectrin repeat/SH3 fragment, residues 178-627; pGEX-1 GST fusion cut with thrombin, E. coli BL21(DE3); fluorescein-5-maleimide label on exposed cysteines (C405, C524)
# T3 sequence (P15924 178-627 R451G): T1 sequence (P15924 178-627 S442F) with F265S, R274G
# Experimental: as §1
# sDSP (DSP178–627) [4] = target: T1, sDSP (DSP178–627); parameters: FITC-sDSP degradation by calpain (1:20), fluorescence polarization after 60 min, per cent of calpain-only control; conditions: degradation rate of DSP S442F by calpain; read-out: % of control remaining
# Experimental: as §1
# sDSP S507F = target: T4, sDSP S507F (Homo sapiens, UniProt P15924, S507F); parameters: FITC-sDSP degradation by calpain (1:20), fluorescence polarization after 60 min, per cent of calpain-only control; conditions: degradation rate of DSP S507F by calpain; read-out: % of control remaining
# T4 construct: gene DSP; N-terminal fragment, residues 178-627
# T4 sequence (P15924 whole entry S507F, the tested form may be a part): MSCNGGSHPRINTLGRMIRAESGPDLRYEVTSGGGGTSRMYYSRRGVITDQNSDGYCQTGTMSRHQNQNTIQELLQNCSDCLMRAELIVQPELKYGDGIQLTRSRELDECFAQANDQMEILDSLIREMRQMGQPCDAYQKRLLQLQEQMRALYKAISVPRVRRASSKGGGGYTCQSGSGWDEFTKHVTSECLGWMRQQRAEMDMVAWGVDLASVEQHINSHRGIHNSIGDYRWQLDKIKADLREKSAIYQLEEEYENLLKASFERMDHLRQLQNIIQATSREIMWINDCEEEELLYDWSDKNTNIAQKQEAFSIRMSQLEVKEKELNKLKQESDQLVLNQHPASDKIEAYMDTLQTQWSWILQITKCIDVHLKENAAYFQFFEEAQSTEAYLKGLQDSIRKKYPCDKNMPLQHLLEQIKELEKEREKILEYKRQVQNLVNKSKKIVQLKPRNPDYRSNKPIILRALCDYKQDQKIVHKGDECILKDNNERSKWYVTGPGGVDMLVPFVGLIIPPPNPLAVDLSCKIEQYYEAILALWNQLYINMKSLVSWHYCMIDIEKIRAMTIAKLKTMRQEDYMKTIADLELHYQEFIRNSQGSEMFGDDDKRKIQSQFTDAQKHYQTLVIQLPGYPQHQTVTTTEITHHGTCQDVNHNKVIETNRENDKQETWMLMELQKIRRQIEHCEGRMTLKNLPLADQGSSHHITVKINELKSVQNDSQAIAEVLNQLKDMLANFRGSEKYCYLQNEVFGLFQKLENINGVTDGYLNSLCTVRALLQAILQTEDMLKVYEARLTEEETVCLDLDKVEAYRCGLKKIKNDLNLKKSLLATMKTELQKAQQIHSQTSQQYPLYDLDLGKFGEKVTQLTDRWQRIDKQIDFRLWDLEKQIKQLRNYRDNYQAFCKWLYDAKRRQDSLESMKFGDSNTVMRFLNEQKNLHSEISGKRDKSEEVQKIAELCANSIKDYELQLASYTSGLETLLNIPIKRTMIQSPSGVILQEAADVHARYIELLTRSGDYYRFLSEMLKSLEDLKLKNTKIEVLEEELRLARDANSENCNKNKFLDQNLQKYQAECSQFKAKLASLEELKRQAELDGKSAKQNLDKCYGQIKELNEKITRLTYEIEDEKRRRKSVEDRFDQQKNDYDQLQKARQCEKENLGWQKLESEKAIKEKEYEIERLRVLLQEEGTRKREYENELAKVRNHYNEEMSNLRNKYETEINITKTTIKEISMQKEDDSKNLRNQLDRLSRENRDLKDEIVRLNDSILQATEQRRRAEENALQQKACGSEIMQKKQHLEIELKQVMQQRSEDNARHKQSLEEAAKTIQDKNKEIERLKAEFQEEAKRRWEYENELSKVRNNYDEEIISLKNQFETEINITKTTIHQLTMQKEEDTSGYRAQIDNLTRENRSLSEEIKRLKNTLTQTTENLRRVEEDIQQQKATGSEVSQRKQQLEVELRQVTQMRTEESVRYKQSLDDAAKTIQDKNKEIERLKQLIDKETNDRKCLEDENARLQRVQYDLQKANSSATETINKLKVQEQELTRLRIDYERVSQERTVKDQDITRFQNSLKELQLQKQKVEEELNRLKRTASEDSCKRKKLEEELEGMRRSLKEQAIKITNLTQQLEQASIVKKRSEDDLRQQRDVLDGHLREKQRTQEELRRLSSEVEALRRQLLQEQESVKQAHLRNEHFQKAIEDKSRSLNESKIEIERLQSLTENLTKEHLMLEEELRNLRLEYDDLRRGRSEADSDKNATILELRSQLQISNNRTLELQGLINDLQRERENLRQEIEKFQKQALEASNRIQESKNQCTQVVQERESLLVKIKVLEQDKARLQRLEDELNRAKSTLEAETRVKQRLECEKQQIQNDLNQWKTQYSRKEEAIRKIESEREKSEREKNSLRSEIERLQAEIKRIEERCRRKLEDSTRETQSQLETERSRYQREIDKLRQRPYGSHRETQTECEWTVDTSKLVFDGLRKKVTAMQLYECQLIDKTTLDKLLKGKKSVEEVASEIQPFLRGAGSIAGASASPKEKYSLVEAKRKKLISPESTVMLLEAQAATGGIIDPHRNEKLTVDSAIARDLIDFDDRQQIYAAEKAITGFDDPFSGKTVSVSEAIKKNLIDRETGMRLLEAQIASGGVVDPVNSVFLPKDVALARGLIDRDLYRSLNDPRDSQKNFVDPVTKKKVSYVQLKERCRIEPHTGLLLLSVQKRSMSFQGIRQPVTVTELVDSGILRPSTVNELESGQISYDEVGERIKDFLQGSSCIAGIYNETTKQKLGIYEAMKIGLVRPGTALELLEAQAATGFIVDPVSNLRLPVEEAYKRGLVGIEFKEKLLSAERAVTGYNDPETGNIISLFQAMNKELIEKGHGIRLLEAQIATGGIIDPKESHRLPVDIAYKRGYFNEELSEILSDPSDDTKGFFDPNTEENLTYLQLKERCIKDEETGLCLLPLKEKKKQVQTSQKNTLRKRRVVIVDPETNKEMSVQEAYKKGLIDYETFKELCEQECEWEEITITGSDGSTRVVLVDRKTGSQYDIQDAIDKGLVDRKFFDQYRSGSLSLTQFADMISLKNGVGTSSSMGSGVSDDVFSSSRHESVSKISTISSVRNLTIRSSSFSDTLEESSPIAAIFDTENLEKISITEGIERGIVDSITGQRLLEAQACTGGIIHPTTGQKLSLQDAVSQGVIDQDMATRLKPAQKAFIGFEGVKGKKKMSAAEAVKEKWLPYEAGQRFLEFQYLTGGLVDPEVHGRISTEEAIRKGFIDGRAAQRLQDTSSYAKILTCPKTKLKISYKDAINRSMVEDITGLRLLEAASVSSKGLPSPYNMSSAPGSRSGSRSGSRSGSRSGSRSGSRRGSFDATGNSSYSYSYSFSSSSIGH
# Experimental: as §1
smiles,measurement,setting,value
CC(C)=CCC/C(C)=C/CC/C(C)=C/CSc1ccccc1C(=O)O [salirasib],remaining activity at 500 µM,sDSP (DSP178–627) [1],-8%
same,remaining activity at 500 µM,sDSP (DSP178–627) [2],32%
same,remaining activity at 500 µM,sDSP (DSP178–627) [3],-5%
same,remaining activity at 500 µM,sDSP (DSP178–627) [4],29%
same,remaining activity at 500 µM,sDSP S507F,26%
